Experimental data reported in BindingDB's records for doi:10.1002/(SICI)1098-2396(200002)35:2<79::AID-SYN1>3.0.CO;2-X (Institut De Recherches Servier, 2000).
Values joined by “and” are separate entries in the source; they are usually repeats but may differ in a detail not shown here. Identical values can stand only once.

Experiments:
[1] = biological target: 5-hydroxytryptamine receptor 2A (Rattus norvegicus, UniProt P14842)
D(2) dopamine receptor = D(2) dopamine receptor (Homo sapiens, UniProt P14416)
[2] = biological target: T1, Alpha-2A adrenergic receptor (Homo sapiens, UniProt P08913)
T1 sequence (P08913 whole entry): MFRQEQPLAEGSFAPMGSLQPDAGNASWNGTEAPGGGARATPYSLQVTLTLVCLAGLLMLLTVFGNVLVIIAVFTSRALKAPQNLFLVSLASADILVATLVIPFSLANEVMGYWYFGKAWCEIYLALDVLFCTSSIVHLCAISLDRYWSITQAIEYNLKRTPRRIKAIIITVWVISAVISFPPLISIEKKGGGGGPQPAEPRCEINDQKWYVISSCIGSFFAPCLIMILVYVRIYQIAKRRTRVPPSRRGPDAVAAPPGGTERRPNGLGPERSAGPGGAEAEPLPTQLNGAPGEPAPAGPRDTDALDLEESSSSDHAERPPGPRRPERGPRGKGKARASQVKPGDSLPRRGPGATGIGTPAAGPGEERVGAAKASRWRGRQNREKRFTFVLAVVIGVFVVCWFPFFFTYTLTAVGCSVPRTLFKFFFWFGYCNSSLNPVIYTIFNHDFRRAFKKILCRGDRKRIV

[3] = biological target: T2, Alpha-2C adrenergic receptor (Rattus norvegicus, UniProt P22086)
T2 sequence (P22086 whole entry): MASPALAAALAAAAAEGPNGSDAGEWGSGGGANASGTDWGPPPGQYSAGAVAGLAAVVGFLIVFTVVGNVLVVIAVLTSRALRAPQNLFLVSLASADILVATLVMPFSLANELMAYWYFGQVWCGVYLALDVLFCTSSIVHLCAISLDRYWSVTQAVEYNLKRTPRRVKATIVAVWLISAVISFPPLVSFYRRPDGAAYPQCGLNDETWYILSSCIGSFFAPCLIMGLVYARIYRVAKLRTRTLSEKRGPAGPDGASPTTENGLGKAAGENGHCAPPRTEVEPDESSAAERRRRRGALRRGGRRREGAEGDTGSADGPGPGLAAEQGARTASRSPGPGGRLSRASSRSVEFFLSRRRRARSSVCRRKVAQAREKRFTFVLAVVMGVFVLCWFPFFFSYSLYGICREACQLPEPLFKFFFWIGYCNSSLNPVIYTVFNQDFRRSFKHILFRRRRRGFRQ

[4] = biological target: T3, 5-hydroxytryptamine receptor 1A (Homo sapiens, UniProt P08908)
T3 sequence (P08908 whole entry): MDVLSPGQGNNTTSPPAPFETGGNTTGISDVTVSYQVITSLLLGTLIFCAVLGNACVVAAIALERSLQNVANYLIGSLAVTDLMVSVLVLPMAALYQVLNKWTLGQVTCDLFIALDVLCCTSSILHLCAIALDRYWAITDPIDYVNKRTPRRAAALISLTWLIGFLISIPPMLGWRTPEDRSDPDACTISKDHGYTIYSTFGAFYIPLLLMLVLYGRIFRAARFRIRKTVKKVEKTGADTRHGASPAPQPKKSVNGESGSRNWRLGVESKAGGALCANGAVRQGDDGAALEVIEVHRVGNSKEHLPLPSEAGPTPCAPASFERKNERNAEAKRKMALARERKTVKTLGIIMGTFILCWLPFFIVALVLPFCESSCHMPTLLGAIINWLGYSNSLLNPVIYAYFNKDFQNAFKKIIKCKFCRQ

[5] = biological target: T4, Alpha-1A adrenergic receptor (Rattus norvegicus, UniProt P43140)
T4 sequence (P43140 whole entry): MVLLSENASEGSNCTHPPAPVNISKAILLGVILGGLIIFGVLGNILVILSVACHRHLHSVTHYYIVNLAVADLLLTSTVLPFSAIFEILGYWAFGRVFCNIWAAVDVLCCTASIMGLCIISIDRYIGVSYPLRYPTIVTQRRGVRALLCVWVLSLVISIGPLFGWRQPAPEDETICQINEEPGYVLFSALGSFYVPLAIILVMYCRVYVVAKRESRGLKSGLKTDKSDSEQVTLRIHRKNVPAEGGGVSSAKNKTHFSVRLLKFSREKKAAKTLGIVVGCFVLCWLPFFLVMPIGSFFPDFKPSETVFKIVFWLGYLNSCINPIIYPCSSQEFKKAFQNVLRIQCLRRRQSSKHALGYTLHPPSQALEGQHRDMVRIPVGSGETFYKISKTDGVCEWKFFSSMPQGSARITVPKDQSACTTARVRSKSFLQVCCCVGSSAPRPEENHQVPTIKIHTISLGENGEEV

[6] = biological target: T5, Alpha-1D adrenergic receptor (Homo sapiens, UniProt P25100)
T5 sequence (P25100 whole entry): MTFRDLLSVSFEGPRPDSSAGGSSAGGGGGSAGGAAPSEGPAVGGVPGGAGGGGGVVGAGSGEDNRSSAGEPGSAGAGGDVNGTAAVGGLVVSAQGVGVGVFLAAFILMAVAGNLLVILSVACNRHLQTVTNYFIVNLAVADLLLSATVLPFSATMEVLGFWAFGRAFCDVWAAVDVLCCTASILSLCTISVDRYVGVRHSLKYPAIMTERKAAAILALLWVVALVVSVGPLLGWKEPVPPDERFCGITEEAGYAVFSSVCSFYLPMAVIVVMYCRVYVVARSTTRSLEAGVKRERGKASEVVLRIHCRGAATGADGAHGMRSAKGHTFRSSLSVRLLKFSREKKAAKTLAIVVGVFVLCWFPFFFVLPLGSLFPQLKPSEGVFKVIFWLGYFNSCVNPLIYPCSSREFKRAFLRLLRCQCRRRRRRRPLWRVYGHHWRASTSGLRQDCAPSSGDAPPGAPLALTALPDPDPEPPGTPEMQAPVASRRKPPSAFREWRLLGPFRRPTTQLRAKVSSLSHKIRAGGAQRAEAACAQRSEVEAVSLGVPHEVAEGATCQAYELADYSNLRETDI

D(2) dopamine receptor, sequence (P14416 whole entry): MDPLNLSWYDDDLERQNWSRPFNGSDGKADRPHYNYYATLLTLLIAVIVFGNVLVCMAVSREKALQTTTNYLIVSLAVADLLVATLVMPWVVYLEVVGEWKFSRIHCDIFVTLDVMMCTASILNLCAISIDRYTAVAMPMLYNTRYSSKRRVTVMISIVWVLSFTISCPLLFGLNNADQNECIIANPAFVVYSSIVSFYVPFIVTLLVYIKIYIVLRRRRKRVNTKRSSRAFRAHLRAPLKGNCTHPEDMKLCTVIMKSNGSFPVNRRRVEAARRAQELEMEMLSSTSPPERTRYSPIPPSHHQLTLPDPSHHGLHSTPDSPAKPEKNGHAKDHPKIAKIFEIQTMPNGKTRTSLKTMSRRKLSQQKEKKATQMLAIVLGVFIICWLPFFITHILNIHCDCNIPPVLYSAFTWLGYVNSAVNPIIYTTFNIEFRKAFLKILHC
5-hydroxytryptamine receptor 2A, sequence (P14842 whole entry): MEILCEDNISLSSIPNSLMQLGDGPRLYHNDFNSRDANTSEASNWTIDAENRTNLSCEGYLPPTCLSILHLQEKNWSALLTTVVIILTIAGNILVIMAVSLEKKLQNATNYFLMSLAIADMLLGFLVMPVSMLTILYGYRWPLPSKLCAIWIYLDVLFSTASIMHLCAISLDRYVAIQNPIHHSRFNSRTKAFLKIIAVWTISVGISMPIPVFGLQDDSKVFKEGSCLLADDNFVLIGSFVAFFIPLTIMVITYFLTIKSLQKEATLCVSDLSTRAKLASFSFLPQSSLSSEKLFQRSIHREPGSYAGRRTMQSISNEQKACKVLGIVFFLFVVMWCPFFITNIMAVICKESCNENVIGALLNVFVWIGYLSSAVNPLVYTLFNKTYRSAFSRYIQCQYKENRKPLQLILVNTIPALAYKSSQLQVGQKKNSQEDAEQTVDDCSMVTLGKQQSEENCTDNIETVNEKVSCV

**Q.** Which results are given for `Fc1cccc2c1OC1CNCC1O2` (configuration not stated) [CAS_105182-45-4]?
**A.** Ki [1]: 1000 nM; Ki (D(2) dopamine receptor): 1000 nM; Ki [2]: 7.94 nM and 6.3 nM; Ki [3]: 0.5 nM; Ki [4]: 158 nM; Ki [5]: 794 nM; Ki [6]: 126 nM
